Read-outs that look alike come from different tables or passages of the source. Residues, ends and D or L forms follow the SMILES beside them.
Key:
[1] = molecular target: Angiotensin converting enzyme (ACE) (Homo sapiens, UniProt P12821); test: biochemical
[2] = system: spontaneously hypertensive rats (SHR); details: oral, dose not given, 4 h after administration, tail-cuff, n = 6
[3] = system: SHR; details: cited from earlier work
[4] = system: ACE; details: read-out: IC50 (ACE inhibition), cited from earlier work
[5] = system: Ehrlich ascites sarcoma cells; details: Ehrlich ascites sarcoma cells in mice; cited from earlier work
Description: Adlay seed (soft-shelled Job’s tears, Coix larchryma-jobi L. var. ma-yuen Stapf) has been used in traditional Chinese medicine and has been a nourishing food for more than a thousand years. It has been used to treat warts, chapped skin, rheumatism, neuralgia, hypertension as well as being an anti-inflammatory and anticancer agent. An increasing effort had been concentrated on finding active components from adlay. […] The main ingredient of ...

[6] = from haruan myofibrillar protein hydrolysate (proteinase K and thermolysin)

Chain of Angiotensin converting enzyme (ACE) (P12821 30-1306, species assumed): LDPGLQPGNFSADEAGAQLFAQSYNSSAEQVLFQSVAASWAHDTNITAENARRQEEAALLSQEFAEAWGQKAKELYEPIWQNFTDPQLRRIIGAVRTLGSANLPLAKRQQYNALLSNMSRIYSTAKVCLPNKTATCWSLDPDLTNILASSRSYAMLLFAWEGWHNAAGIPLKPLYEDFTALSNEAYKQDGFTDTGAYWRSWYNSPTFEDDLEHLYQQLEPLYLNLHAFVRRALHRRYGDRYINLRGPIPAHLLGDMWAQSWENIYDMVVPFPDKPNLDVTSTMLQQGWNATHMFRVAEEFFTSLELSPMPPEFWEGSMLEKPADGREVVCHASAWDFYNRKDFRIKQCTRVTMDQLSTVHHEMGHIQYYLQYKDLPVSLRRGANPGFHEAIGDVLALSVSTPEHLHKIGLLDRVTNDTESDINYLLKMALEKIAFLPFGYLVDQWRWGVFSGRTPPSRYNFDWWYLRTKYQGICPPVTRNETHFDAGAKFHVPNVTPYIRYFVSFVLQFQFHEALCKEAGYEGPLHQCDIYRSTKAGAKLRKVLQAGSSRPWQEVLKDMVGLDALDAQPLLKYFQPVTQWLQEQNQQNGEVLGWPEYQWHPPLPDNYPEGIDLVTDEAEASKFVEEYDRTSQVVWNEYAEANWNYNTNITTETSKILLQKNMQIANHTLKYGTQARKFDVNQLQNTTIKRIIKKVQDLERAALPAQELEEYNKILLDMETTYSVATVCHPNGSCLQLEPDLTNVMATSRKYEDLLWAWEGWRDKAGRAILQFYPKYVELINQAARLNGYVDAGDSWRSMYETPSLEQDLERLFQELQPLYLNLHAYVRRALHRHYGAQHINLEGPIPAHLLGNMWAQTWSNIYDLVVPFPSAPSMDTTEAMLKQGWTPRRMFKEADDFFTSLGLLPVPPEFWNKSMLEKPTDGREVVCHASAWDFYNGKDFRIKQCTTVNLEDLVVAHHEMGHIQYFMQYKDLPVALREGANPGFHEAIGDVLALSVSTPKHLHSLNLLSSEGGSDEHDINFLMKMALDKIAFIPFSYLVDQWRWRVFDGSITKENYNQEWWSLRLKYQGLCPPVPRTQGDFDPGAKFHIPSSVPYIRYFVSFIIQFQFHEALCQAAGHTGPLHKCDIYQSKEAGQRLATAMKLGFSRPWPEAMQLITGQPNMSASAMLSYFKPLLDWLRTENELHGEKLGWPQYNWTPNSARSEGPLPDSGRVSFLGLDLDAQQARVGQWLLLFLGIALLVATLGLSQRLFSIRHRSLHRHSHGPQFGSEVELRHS

## C[C@H](NC(=O)CN)C(=O)N[C@@H](C)C(=O)NCC(=O)NCC(=O)N[C@@H](C)C(=O)N[C@@H](Cc1ccccc1)C(=O)O [GAAGGAF] (H-GAAGGAF-OH)
[1]
  IC50: 14.2 µM

## C[C@H](CS)C(=O)N1CCC[C@H]1C(=O)O [captopril]
[2]
  Maximal decrease of SBP, positive control: approximately 28.17 mmHg

## AAATP
[3]; SHRs, after 8 h administration, from Spanish dry-cured ham
  Decrease of SBP: around 25.62 mmHg

## AWLHPGAPKVF
[3]; single oral, 10 mg/kg
  Antihypertensive duration: 8 h
[3]; single oral, 10 mg/kg, from P. esculenta protein hydrolysate
  Reduction of SBP: around 30 mmHg

## Ala-Tyr
[4]; from corn gluten meal
  IC50: 14.2 µM

## NGTWFEPP
[4]; [6]
  IC50: 0.63 µM

## VPAAPPK
[4]; [6]
  IC50: 0.45 µM

## coixenolide [coixenolide (I)]
[5]
  Growth-inhibiting activity: growth-inhibiting activity
